# Measurements taken from publication PMC10178204, “Peptaibol Analogs Show Potent Antibacterial Activity against Multidrug Resistant Opportunistic Pathogens” (International Journal of Molecular Sciences, 2023).
# “And” between values parts separate entries of the source, which are not always exact repeats. Equal entries are not always repeated. Non-standard residues stand in square brackets, D forms with d. Residues, ends and D or L forms follow the SMILES beside them. *: point of attachment. Leu(ol) = CC(C)C[C@H](N)CO; Octanoyl = CCCCCCCC(=O)*; Aib = CC(C)(N)C(=O)O
# Experiments:
# [1] = system: Bacillus subtilis ATCC 6633; conditions: MHB, 5 × 10^5 CFU/mL, 18 h, 35 °C, triplicate
# Source text: (§1) The antibacterial activity of the peptides was initially assessed on a panel of representative Gram-positive and Gram-negative organisms of high clinical relevance and commonly responsible for bacterial infections in both animals and humans. Bacillus subtilis ATCC 6633 (Bsu) was also included as a rod-shaped model Gram-positive organism. This first panel comprised: Enterococcus faecalis ATCC 29212 (Efa); Streptococcus pyogenes ATCC 12344 (Spy); and Staphylococcus aureus ATCC 25923 (Sau); Gram-negative: Escherichia coli CCUGT (Eco), Klebsiella pneumoniae ATCC 13833 (Kpn), Acinetobacter baumannii ATCC 17978 (Aba), and Pseudomonas aeruginosa ATCC 27853 (Pae) (Table 2). Both the minimum inhibitory concentration (MIC, Table 2) and the minimum bactericidal concentration (MBC, Table S1, Supporting Material) were determined.
# (§2) The minimum inhibitory concentration (MIC) and the minimum bactericidal concentration (MBC) of the compounds were determined in triplicate using Mueller–Hinton broth (MHB). […] Therefore, we decided to dissolve all peptides in DMSO to a final concentration of 25 mg/mL, for consistency. The bacteria inoculum was 5 × 10^5 CFU/mL, as recommended by CLSI (Document M07-A10, 2015). […] Reference-type strains, including representatives of both Gram-positive bacteria (Bacillus subtilis ATCC 6633, Enterococcus faecalis ATCC 29212, Staphylococcus aureus ATCC 25923, the methicillin-resistant Staphylococcus aureus ATCC 43300 (MRSA), Streptococcus pyogenes ATCC 12344) and Gram-negative bacteria (Escherichia coli CCUGT, Klebsiella pneumoniae ATCC 13833, Pseudomonas aeruginosa ATCC 27853, and Acinetobacter baumannii ATCC 17978), were acquired from ATCC or CCUG culture collections. Other antibiotic-resistant clinical isolates were present in our collection at the University Teaching Hospital (Azienda Ospedaliero-Universitaria Senese ‘Santa Maria alle Scotte’) in Siena, Tuscany, Italy. Specifically, MDR carbapenem-hydrolyzing class D β-lactamase-producing Acinetobacter baumannii and metallo-β-lactamase-producing Pseudomonas aeruginosa were used in this study (Table 4).
# [2] = system: Acinetobacter baumannii ATCC 17978; conditions: for MBC Aba / MIC Aba: MHB, 5 × 10^5 CFU/mL, 18 h, 35 °C, triplicate; for MIC against A. baumannii, in molar units: corresponding to 2 and 8 μg/mL
# Source text: as §1, §2
# [3] = system: Klebsiella pneumoniae ATCC 13833; conditions: MHB, 5 × 10^5 CFU/mL, 18 h, 35 °C, triplicate
# Source text: as §1, §2
# [4] = system: Streptococcus pyogenes ATCC 12344; conditions: MHB, 5 × 10^5 CFU/mL, 18 h, 35 °C, triplicate
# Source text: as §1, §2
# [5] = system: Staphylococcus aureus ATCC 25923; conditions: MHB, 5 × 10^5 CFU/mL, 18 h, 35 °C, triplicate
# Source text: as §1, §2
# [6] = system: Pseudomonas aeruginosa ATCC 27853; conditions: MHB, 5 × 10^5 CFU/mL, 18 h, 35 °C, triplicate
# Source text: as §1, §2
# [7] = system: Enterococcus faecalis ATCC 29212; conditions: MHB, 5 × 10^5 CFU/mL, 18 h, 35 °C, triplicate
# Source text: as §1, §2
# [8] = system: Escherichia coli CCUGT; conditions: MHB, 5 × 10^5 CFU/mL, 18 h, 35 °C, triplicate
# Source text: as §1, §2
# [9] = system: A. baumannii SI-310 (OXA-24); conditions: colistin-resistant isolate; MHB, 5 × 10^5 CFU/mL, 18 h, 35 °C, triplicate
# Method: as §2
# [10] = system: A. baumannii SI-648 (OXA-23, OXA-51-like); conditions: MHB, 5 × 10^5 CFU/mL, 18 h, 35 °C, triplicate
# Method: as §2
# [11] = system: P. aeruginosa 506/99 (VIM-2); conditions: MHB, 5 × 10^5 CFU/mL, 18 h, 35 °C, triplicate
# Method: as §2
# [12] = system: A. baumannii SI-12 (OXA-23); conditions: MHB, 5 × 10^5 CFU/mL, 18 h, 35 °C, triplicate
# Method: as §2
# [13] = system: P. aeruginosa VA-182/00 (VIM-2); conditions: MHB, 5 × 10^5 CFU/mL, 18 h, 35 °C, triplicate
# Method: as §2
# [14] = system: P. aeruginosa VR-143/97 (VIM-1); conditions: MHB, 5 × 10^5 CFU/mL, 18 h, 35 °C, triplicate
# Method: as §2
# [15] = system: S. aureus ATCC 43300 (MRSA); conditions: MHB, 5 × 10^5 CFU/mL, 18 h, 35 °C, triplicate
# Method: as §2
# [16] = system: P. aeruginosa 101/1477 (IMP-1); conditions: MHB, 5 × 10^5 CFU/mL, 18 h, 35 °C, triplicate
# Method: as §2
# [17] = system: blood agar plate (Columbia CNA Agar); assay: Hemolysis on blood agar plate; conditions: 35 ± 2 °C, 24 h; for Hemolysis (class): 50 μg peptide (2 μL of 25 mg/mL in DMSO) spotted on blood agar, visual, triplicate; for Hemolysis (d, diameter of hemolysis zone): 50 μg spotted on blood agar, average of triplicate
# Method: Hemolysis zones were visually determined and measured. […] For two additional peptides (6 and 15), only a small hemolysis zone (diameter 4–5 mm) was visible, as compared to that of the positive control (Triton X-100, 13 mm).
# Briefly, 2 μL of each peptide solution in DMSO (25 mg/mL), corresponding to 50 μg, was spotted on the surface of a blood agar plate (Columbia CNA Agar, Becton Dickinson Italia S.p.A., Florence, Italy). The plate was then incubated at 35 ± 2 °C for 24 h and visually inspected for the presence of hemolysis zones (see Figure S13, Supplementary Material). The experiment was performed in triplicate. Table 2 reports the average value of the diameter of hemolysis zones measured in each individual experiment. Triton X-100 was used as a positive control (diameter of the hemolysis zone: 13 mm), while DMSO was used as a negative control.
# Figure S13. Implementation of the hemolysis test as described in Bechlars et al.. After spotting
# 2 µL (50 µg) of each compound at a random location on the blood agar plate and incubation at 35 ±
# 2 °C for 24 h, the plates were manually inspected for the presence of hemolysis zones. Triton X-100
# and DMSO were used as the positive and negative controls, respectively. Results were interpreted
# (1 picture or pasted object on this page, not shown here)
Compound,MBC Bsu [1] [mg/L],MIC Bsu [1] [mg/L],MBC Aba [2] [mg/L],MIC Kpn [3] [mg/L],MBC Spy [4] [mg/L],MIC Spy [4] [mg/L],MBC Sau [5] [mg/L],MIC Sau [5] [mg/L],MBC Efa [7] [mg/L],MIC Efa [7] [mg/L],MIC Eco [8] [mg/L],MBC A. baumannii SI-310 (OXA-24) [9] [mg/L],MIC A. baumannii SI-310 (OXA-24) [9],"MBC A. baumannii SI-648 (OXA-23, OXA-51-like) [10] [mg/L]","MIC A. baumannii SI-648 (OXA-23, OXA-51-like) [10]",MIC P. aeruginosa 506/99 (VIM-2) [11] [mg/L],MBC A. baumannii SI-12 (OXA-23) [12] [mg/L],MIC A. baumannii SI-12 (OXA-23) [12],MIC P. aeruginosa VA-182/00 (VIM-2) [13] [mg/L],MIC P. aeruginosa VR-143/97 (VIM-1) [14],also measured
"CCCCCCCC(=O)NC(C)(C)C(=O)NCC(=O)N[C@@H](CC(C)C)C(=O)NC(C)(C)C(=O)NCC(=O)NCC(=O)N[C@@H](CC(C)C)C(=O)NC(C)(C)C(=O)N[C@@H](CCCCN)C(=O)N[C@H](C(=O)N[C@H](CO)CC(C)C)[C@@H](C)CC [Peptide 9, 1-Oct-Aib-Gly-Leu-Aib-Gly-Gly-Leu-Aib-Lys-Ile-Lol] (Octanoyl-[Aib]GL[Aib]GGL[Aib]KI[Leu(ol)])",16,4,8,> 128,32,16,16,16,4,4,> 128,32,32 μg/mL and 32/32 μg/mL,32,32 μg/mL and 32/32 μg/mL,> 128,32,32 μg/mL and 32/32 μg/mL,> 128,> 128 mg/L,"MIC against A. baumannii, in molar units [2]: 1.8 to 7.2 µM; MIC Pae [6]: > 128 mg/L; MBC S. aureus ATCC 43300 (MRSA) [15]: 8 mg/L; MIC S. aureus ATCC 43300 (MRSA) [15]: 4 mg/L; MIC P. aeruginosa 101/1477 (IMP-1) [16]: > 128 mg/L; Hemolysis (class) [17]: +; Hemolysis (d, diameter of hemolysis zone) [17]: 10 mm"
"CCCCCCCC(=O)NC(C)(C)C(=O)N[C@@H](CCCCN)C(=O)N[C@@H](CC(C)C)C(=O)NC(C)(C)C(=O)NCC(=O)NCC(=O)N[C@@H](CC(C)C)C(=O)NC(C)(C)C(=O)NCC(=O)N[C@H](C(=O)N[C@@H](CC(C)C)C(N)=O)[C@@H](C)CC [Peptide 2, 1-Oct-Aib-Lys-Leu-Aib-Gly-Gly-Leu-Aib-Gly-Ile-Leu-NH2] (Octanoyl-[Aib]KL[Aib]GGL[Aib]GIL-NH2)",16,4,16,64,4,4,8,8,8,4,> 128,32,32 μg/mL and 32/32 μg/mL,32,16 µg/mL,> 128,32,32 μg/mL and 32/32 μg/mL,> 128,> 128 mg/L,"MIC Aba [2]: 16 mg/L; MBC Kpn [3]: > 128 mg/L; MIC Pae [6]: > 128 mg/L; MBC S. aureus ATCC 43300 (MRSA) [15]: 4 mg/L; MIC S. aureus ATCC 43300 (MRSA) [15]: 2 mg/L; MIC P. aeruginosa 101/1477 (IMP-1) [16]: > 128 mg/L; Hemolysis (class) [17]: +; Hemolysis (d, diameter of hemolysis zone) [17]: 8 mm"
1-Oct-Aib-Gly-Leu-Aib-Lys-Lys-Leu-Aib-Lys-Ile-Leu-NH2 [Peptide 5b],16,2,32,32,32,2,32,8,16,2,32,4,2 µg/mL,4,4 μg/mL and 4/4 μg/mL,8,8,4 µg/mL,8,16 mg/L and 8 mg/L,"MIC Aba [2]: 4 mg/L; MIC against A. baumannii, in molar units [2]: 1.8 to 7.2 µM; MBC Kpn [3]: 128 mg/L; MBC Pae [6]: 128 mg/L; MIC Pae [6]: 16 mg/L; MBC Eco [8]: 128 mg/L; MBC P. aeruginosa 506/99 (VIM-2) [11]: 32 mg/L; MBC P. aeruginosa VA-182/00 (VIM-2) [13]: 32 mg/L; MBC P. aeruginosa VR-143/97 (VIM-1) [14]: 32 mg/L; MBC S. aureus ATCC 43300 (MRSA) [15]: 2 mg/L; MIC S. aureus ATCC 43300 (MRSA) [15]: 2 mg/L; MBC P. aeruginosa 101/1477 (IMP-1) [16]: 8 mg/L; MIC P. aeruginosa 101/1477 (IMP-1) [16]: 8 mg/L"
"CCCCCCCC(=O)NC(C)(C)C(=O)NCC(=O)N[C@@H](CC(C)C)C(=O)NC(C)(C)C(=O)NCC(=O)N[C@@H](CCCCN)C(=O)N[C@@H](CC(C)C)C(=O)NC(C)(C)C(=O)NCC(=O)N[C@H](C(=O)N[C@H](CO)CC(C)C)[C@@H](C)CC [Peptide 10, 1-Oct-Aib-Gly-Leu-Aib-Gly-Lys-Leu-Aib-Gly-Ile-Lol]",16,4,> 128,16,16,4,16,8,16,4,64,16,16 μg/mL and 16/16 μg/mL,16,16 μg/mL and 16/16 μg/mL,> 128,32,32 μg/mL and 32/32 μg/mL,> 128,> 128 mg/L,"MIC against A. baumannii, in molar units [2]: 1.8 to 7.2 µM; MBC Kpn [3]: 64 mg/L; MBC Pae [6]: 128 mg/L; MBC Eco [8]: 128 mg/L; MBC S. aureus ATCC 43300 (MRSA) [15]: 8 mg/L; MIC S. aureus ATCC 43300 (MRSA) [15]: 4 mg/L; MIC P. aeruginosa 101/1477 (IMP-1) [16]: > 128 mg/L; Hemolysis (class) [17]: +; Hemolysis (d, diameter of hemolysis zone) [17]: 11 mm"
